In patent US3957779A, “Benzo-1,2,4-triazines” (Bayer Aktiengesellschaft, priority 1972, dated 1976):
In brackets after ≈: the same amount, converted by molar mass.

Columns and labels:
[1] = test system: Escherichia coli C165; assay: In vivo ED50, intraperitoneal infection of white mice (Table 2); conditions: sc; Escherichia coli C165 i.p. infection; s.c. 15 minutes before infection; 50% survival at 24 hours
[2] = test system: Proteus vulgaris 1017; assay: MIC, plate test (Table 1); type: cell-based; conditions: 37°C, 24 hours, read-out: Minimum inhibitory concentration (MIC)
Protocol: (§1) The minimum inhibitory concentration (MIC) was determined in the plate test on a complete nutrient base of the following composition: 10 g of proteose-peptone, 10 g of veal infusion, 2 g of dextrose, 3 g of sodium chloride, 2 g of disodium phosphate, 1 g of sodium acetate, 0.01 g of adenine sulphate, 0.01 g of guanine hydrochloride, 0.01 g of uracil, 0.01 g. of xantin, 12 g of agar-agar and 1 liter of water.
(§2) The incubation temperature was 37°C and the incubation time was 24 hours.

[3] = test system: Escherichia coli A261; assay: MIC, plate test (Table 1); type: cell-based; conditions: 37°C, 24 hours, read-out: Minimum inhibitory concentration (MIC)
Protocol: as §1, §2

[4] = test system: Salmonella species; assay: MIC, plate test (Table 1); type: cell-based; conditions: 37°C, 24 hours, read-out: Minimum inhibitory concentration (MIC)
Protocol: as §1, §2

[5] = test system: Pseudomonas aeruginosa B; assay: MIC, plate test (Table 1); type: cell-based; conditions: 37°C, 24 hours, read-out: Minimum inhibitory concentration (MIC)
Protocol: as §1, §2

[6] = test system: Escherichia coli C165; assay: MIC, plate test (Table 1); type: cell-based; conditions: 37°C, 24 hours, read-out: Minimum inhibitory concentration (MIC)
Protocol: as §1, §2

[7] = test system: Klebsiella 8085; assay: MIC, plate test (Table 1); type: cell-based; conditions: 37°C, 24 hours, read-out: Minimum inhibitory concentration (MIC)
Protocol: as §1, §2

[8] = test system: Streptococcus pyogenes; assay: MIC, plate test (Table 1); type: cell-based; conditions: with serum, 37°C, 24 hours, read-out: Minimum inhibitory concentration (MIC)
Protocol: as §1, §2

[9] = test system: Pseudomonas aeruginosa w; assay: MIC, plate test (Table 1); type: cell-based; conditions: 37°C, 24 hours, read-out: Minimum inhibitory concentration (MIC)
Protocol: as §1, §2

[10] = test system: Klebsiella 63; assay: MIC, plate test (Table 1); type: cell-based; conditions: 37°C, 24 hours, read-out: Minimum inhibitory concentration (MIC)
Protocol: as §1, §2

[11] = test system: Staphylococcus aureus 133; assay: MIC, plate test (Table 1); type: cell-based; conditions: 37°C, 24 hours, read-out: Minimum inhibitory concentration (MIC)
Protocol: as §1, §2

[12] = test system: Mycobacterium tuberculosis; assay: MIC, series dilution test, Jenssen egg medium; type: cell-based; conditions: 37°C, read-out: minimum inhibitory concentration
Protocol: The compounds of Examples 12 and 13 show minimum inhibitory concentrations of 32 γ/ml of nutrient medium in the series dilution test, Jenssen egg medium, 37°C, against Mycobacterium tuberculosis.

[13] = test system: Mycoplasma gallisepticum; assay: MIC, series dilution test, PPLO-medium (Table 1); type: cell-based; conditions: Mycoplasmoides gallisepticum, 37°C, 18, 24 and 48 hours, read-out: Minimum inhibitory concentration (MIC)
Protocol: (§3) The mycoplasmae were tested in the series dilution test (PPLO-medium) at 37°C, with observations after 18, 24 and 48 hours.

[14] = test system: Mycoplasma bovirhinis; assay: MIC, series dilution test, PPLO-medium (Table 1); type: cell-based; conditions: 37°C, 18, 24 and 48 hours, read-out: Minimum inhibitory concentration (MIC)
Protocol: as §3

[15] = test system: Mycoplasma granularum; assay: MIC, series dilution test, PPLO-medium (Table 1); type: cell-based; conditions: Acholeplasma granularum, 37°C, 18, 24 and 48 hours, read-out: Minimum inhibitory concentration (MIC)
Protocol: as §3

[16] = test system: Klebsiella 8085; assay: In vivo ED50, intraperitoneal infection of white mice (Table 2); conditions: sc; Klebsiella 8085 i.p. infection; s.c. 15 minutes before infection; 50% survival at 24 hours
[17] = test system: Pseudomonas aeruginosa B; assay: Turbidity test in Mueller-Hinton nutrient solution; type: cell-based; conditions: 100 γ/ml, 24 hours, 37°C
[18] = test system: Brucella species; type: cell-based; conditions: 100 γ/ml, 24 hours, 37°C
[19] = test system: Aeromonas hydrophila species; assay: Turbidity test in Mueller-Hinton nutrient solution; type: cell-based; conditions: 100 γ/ml, 24 hours, 37°C
[20] = test system: Proteus indole-positive, species; assay: Turbidity test in Mueller-Hinton nutrient solution; type: cell-based; conditions: 100 γ/ml, 24 hours, 37°C
[21] = test system: Klebsiella K 63; assay: Turbidity test in Mueller-Hinton nutrient solution; type: cell-based; conditions: 100 γ/ml, 24 hours, 37°C
[22] = test system: Corynebacterium diphtheriae gravis; assay: Turbidity test in Mueller-Hinton nutrient solution; type: cell-based; conditions: 100 γ/ml, 24 hours, 37°C
[23] = test system: Proteus vulgaris 1017; assay: Turbidity test in Mueller-Hinton nutrient solution; type: cell-based; conditions: 100 γ/ml, 24 hours, 37°C
[24] = test system: Borrelia species; assay: Turbidity test in Mueller-Hinton nutrient solution; type: cell-based; conditions: 100 γ/ml, 24 hours, 37°C
[25] = test system: Bacteroides species; assay: Turbidity test in Mueller-Hinton nutrient solution; type: cell-based; conditions: 100 γ/ml, 24 hours, 37°C
[26] = test system: Serratia species; assay: Turbidity test in Mueller-Hinton nutrient solution; type: cell-based; conditions: 100 γ/ml, 24 hours, 37°C
[27] = test system: Neisseria catarrhalis species; assay: Turbidity test in Mueller-Hinton nutrient solution; type: cell-based; conditions: 100 γ/ml, 24 hours, 37°C
[28] = test system: Streptococcus pyogenes W; assay: Turbidity test in Mueller-Hinton nutrient solution; type: cell-based; conditions: 100 γ/ml, 24 hours, 37°C
[29] = test system: Diplococcus pneumoniae species; assay: Turbidity test in Mueller-Hinton nutrient solution; type: cell-based; conditions: 100 γ/ml, 24 hours, 37°C
[30] = test system: Haemophilus influenzae 281; assay: Turbidity test in Mueller-Hinton nutrient solution; type: cell-based; conditions: 100 γ/ml, 24 hours, 37°C
[31] = test system: Staphylococcus aureus 133; assay: Turbidity test in Mueller-Hinton nutrient solution; type: cell-based; conditions: 100 γ/ml, 24 hours, 37°C
[32] = test system: Bordetella bronchiseptica; assay: Turbidity test in Mueller-Hinton nutrient solution; type: cell-based; conditions: 100 γ/ml, 24 hours, 37°C
[33] = test system: Corynebacterium pyogenes M; assay: Turbidity test in Mueller-Hinton nutrient solution; type: cell-based; conditions: 100 γ/ml, 24 hours, 37°C
[34] = test system: Escherichia coli C 165; assay: Turbidity test in Mueller-Hinton nutrient solution; type: cell-based; conditions: 100 γ/ml, 24 hours, 37°C
[35] = test system: Escherichia coli 14; assay: Turbidity test in Mueller-Hinton nutrient solution; type: cell-based; conditions: 100 γ/ml, 24 hours, 37°C
[36] = test system: Klebsiella K 10; assay: Turbidity test in Mueller-Hinton nutrient solution; type: cell-based; conditions: 100 γ/ml, 24 hours, 37°C
[37] = test system: Enterobacter species; assay: Turbidity test in Mueller-Hinton nutrient solution; type: cell-based; conditions: 100 γ/ml, 24 hours, 37°C
[38] = test system: Enterococcus species; assay: Turbidity test in Mueller-Hinton nutrient solution; type: cell-based; conditions: 100 γ/ml, 24 hours, 37°C
[39] = test system: Lactobacillus species; assay: Turbidity test in Mueller-Hinton nutrient solution; type: cell-based; conditions: 100 γ/ml, 24 hours, 37°C
[40] = test system: Escherichia coli A 261; assay: Turbidity test in Mueller-Hinton nutrient solution; type: cell-based; conditions: 100 γ/ml, 24 hours, 37°C
[41] = test system: Clostridium botulinium; type: cell-based
[42] = test system: Shigella species; assay: Turbidity test in Mueller-Hinton nutrient solution; type: cell-based; conditions: 100 γ/ml, 24 hours, 37°C
Protocol: (§4) 100 γ/ml of the compounds according to the invention are dissolved in Mueller-Hinton nutrient solution, with addition of 0.1% of glucose. The nutrient solution contains […] microbes per ml. The mixture is incubated in glass test tubes for 24 hours at 37°C and after this time the degree of turbidity is determined.

[43] = test system: Salmonella species; assay: Turbidity test in Mueller-Hinton nutrient solution; type: cell-based; conditions: 100 γ/ml, 24 hours, 37°C
Protocol: as §4

[44] = test system: Proteus indole-negative, species; assay: Turbidity test in Mueller-Hinton nutrient solution; type: cell-based; conditions: 100 γ/ml, 24 hours, 37°C
[45] = test system: Pasteurella pseudotuberculosis; type: cell-based; conditions: 100 γ/ml, 24 hours, 37°C
[46] = test system: Pseudomonas aeruginosa w; assay: Turbidity test in Mueller-Hinton nutrient solution; type: cell-based; conditions: 100 γ/ml, 24 hours, 37°C
[47] = test system: Clostridium tetani; type: cell-based; conditions: 100 γ/ml, 24 hours, 37°C

With CNc1n[n+]([O-])c2ccccc2[n+]1[O-] [Example 1, 3-(N-methylamino)-benzo-1,2,4-triazine-1,4-di-N-oxide] the ED50 [1] was 25 mg/kg, the MIC [2] was 128 µg/mL (≈ 666 µM) and the MIC [3] was 8 µg/mL (≈ 41.6 µM). For the same molecule, the MIC [4] was 8 to 16 µg/mL (≈ 41.6 to 83.3 µM), the MIC [5] was 8 µg/mL (≈ 41.6 µM) and the MIC [6] was 8 µg/mL (≈ 41.6 µM). It also gave an MIC [7] of 8 µg/mL (≈ 41.6 µM), an MIC [8] of 128 µg/mL (≈ 666 µM) and an MIC [9] of 128 µg/mL (≈ 666 µM). For the same molecule, the MIC [10] was 128 µg/mL (≈ 666 µM), the MIC [11] was 8 µg/mL (≈ 41.6 µM) and the MIC [12] was 32 µg/mL (≈ 167 µM). It also gave an MIC [13] of 1 µg/mL (≈ 5.2 µM), an MIC [14] of 1 µg/mL (≈ 5.2 µM) and an MIC [15] of 1 µg/mL (≈ 5.2 µM). It also gave an ED50 [16] of 25 mg/kg.

In the case of O=C(CCl)Nc1n[n+]([O-])c2ccccc2[n+]1[O-] [Example 9, 3-(N-chloroacetylamino)-benzo-1,2,4-triazine-1,4-di-N-oxide], the ED50 [16] was 25 mg/kg.

In the case of NC(=O)Nc1n[n+]([O-])c2ccccc2[n+]1[O-] [Example 13, 1,4-dioxo-benzo-1,2,4-triazin-3-yl-urea], the turbidity after incubation [17] was “remained free of turbidity”, the turbidity after incubation [18] was “remained free of turbidity” and the turbidity after incubation [19] was “remained free of turbidity”. The turbidity after incubation [20] was “remained free of turbidity”, the turbidity after incubation [21] was “remained free of turbidity” and the turbidity after incubation [22] was “remained free of turbidity”. The turbidity after incubation [23] was “remained free of turbidity”, the turbidity after incubation [24] was “remained free of turbidity” and the MIC [12] was 32 µg/mL (≈ 145 µM). The turbidity after incubation [25] was “remained free of turbidity”, the turbidity after incubation [26] was “remained free of turbidity” and the turbidity after incubation [27] was “remained free of turbidity”. The turbidity after incubation [28] was “remained free of turbidity”, the turbidity after incubation [29] was “remained free of turbidity” and the turbidity after incubation [30] was “remained free of turbidity”. The turbidity after incubation [31] was “remained free of turbidity”, the turbidity after incubation [32] was “remained free of turbidity” and the turbidity after incubation [33] was “remained free of turbidity”. The turbidity after incubation [34] was “remained free of turbidity”, the turbidity after incubation [35] was “remained free of turbidity” and the turbidity after incubation [36] was “remained free of turbidity”. For the same molecule, the turbidity after incubation [37] was “remained free of turbidity”, the turbidity after incubation [38] was “remained free of turbidity” and the turbidity after incubation [39] was “remained free of turbidity”. The turbidity after incubation [40] was “remained free of turbidity”, the turbidity after incubation [41] was “remained free of turbidity” and the turbidity after incubation [42] was “remained free of turbidity”. For the same molecule, the turbidity after incubation [43] was “remained free of turbidity”, the turbidity after incubation [44] was “remained free of turbidity” and the turbidity after incubation [45] was “remained free of turbidity”. For the same molecule, the turbidity after incubation [46] was “remained free of turbidity” and the turbidity after incubation [47] was “remained free of turbidity”.
